Laboratory results as given in patent US11547767B2, “99mTc-EDDA/HYNIC-iPSMA as a radiopharmaceutical for detecting the overexpression of prostate-specific membrane antigen” (INSTITUTO NACIONAL DE INVESTIGACIONES NUCLEARES, priority 2016, dated 2023).

Assays:
[1] = type: physicochemical
Description: HYNIC-iPSMA (37.5 μg) was formulated as a lyophilized dosage form containing 10 mg of EDDA, 20 mg of tricine, 20 μg of stannous chloride and 50 mg of mannitol. This formulation, on being reconstituted with 1 mL of 0.2 M phosphate buffer solution, pH 7 and 1 mL of solution of sodium pertechnetate (^99mTcO4Na), obtained in situ from a generator of ^99Mo/^99mTc, produces the compound to be patented ^99mTc-EDDA/HYNIC-iPSMA (FIG. 1) with radiochemical purity greater than 98% determined by reverse-phase HPLC, which has the corresponding radiochromatogram (FIG. 3).
(§1) The radiopharmaceutical remains stable with radiochemical purity greater than 95%, 24 h after labeling. In-vitro tests of stability in human serum show binding to serum proteins of 8.3±2.1% and high radiochemical stability (>90%).

LNCaP tumors = tested on: LNCaP tumors; parameters: species or system mice; details: mouse, in vivo
From the text: (§2) This image confirms, and is the main evidence, that because of its increased properties of affinity owing to the lipophilicity of the incorporated HYNIC molecule, ^99mTc-EDDA/HYNIC-iPSMA is able to equal the high imaging sensitivity of the PET radionuclides in the detection of tumoral lesions that overexpress PSMA.

[2] = type: in vitro ADME, human
Description: as §1

[3] = molecular target: T1, PSMA overexpressed in prostate cancer cells (Homo sapiens, UniProt Q04609); assay: SPECT/PET imaging in patients with prostate cancer; type: in vivo; details: for detection of tumors and metastases (PET and SPECT image, FIG. 6): same patient with advanced metastatic prostate cancer given both radiopharmaceuticals
T1 construct: detect in vivo PSMA overexpressed in prostate cancer cells; from tissue; host or cells: tumours and metastases in prostate cancer patients (in vivo SPECT/PET)
T1 sequence (Q04609 whole entry): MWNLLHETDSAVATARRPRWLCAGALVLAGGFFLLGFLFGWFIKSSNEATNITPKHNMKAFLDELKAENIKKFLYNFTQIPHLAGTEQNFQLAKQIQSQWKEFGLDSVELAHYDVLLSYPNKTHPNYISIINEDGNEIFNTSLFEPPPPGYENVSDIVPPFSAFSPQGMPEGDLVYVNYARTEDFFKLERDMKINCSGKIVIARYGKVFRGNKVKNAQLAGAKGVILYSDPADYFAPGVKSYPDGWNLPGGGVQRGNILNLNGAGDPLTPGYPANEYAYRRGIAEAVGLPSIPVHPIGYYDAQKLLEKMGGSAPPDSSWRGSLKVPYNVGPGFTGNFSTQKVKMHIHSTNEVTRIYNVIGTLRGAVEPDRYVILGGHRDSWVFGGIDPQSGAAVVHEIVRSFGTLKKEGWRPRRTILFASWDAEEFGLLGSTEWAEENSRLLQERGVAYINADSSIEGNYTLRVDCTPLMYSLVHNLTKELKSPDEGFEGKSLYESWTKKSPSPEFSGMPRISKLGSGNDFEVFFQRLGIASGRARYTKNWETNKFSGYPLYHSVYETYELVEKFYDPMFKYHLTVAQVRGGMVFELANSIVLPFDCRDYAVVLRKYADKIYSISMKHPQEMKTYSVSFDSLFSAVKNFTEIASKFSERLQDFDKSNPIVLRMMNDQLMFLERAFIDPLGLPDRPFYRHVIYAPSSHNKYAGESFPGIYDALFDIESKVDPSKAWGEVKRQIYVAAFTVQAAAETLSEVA
From the text: as §2

[4] = human, in vivo
From the text: as §2

[5] = molecular target: T2, PSMA protein (LNCaP cells) (Homo sapiens, UniProt Q04609); assay: affinity by studies of competence in PSMA-positive cancer cells (LNCaP); type: binding; details: competition in LNCaP cells
T2 construct: endogenous in cells; host or cells: LNCaP
T2 sequence (Q04609 whole entry): as above

balb-C laboratory mice = assay: toxicity in balb-C laboratory mice; type: in vivo; details: dose of 40 mg/kg
From the text: as §2

## 99mTc-ethylenediaminediacetic acid/hydrazinonicotinamide-inhibitor of prostate-specific membrane antigen [99mTc-EDDA/HYNIC-iPSMA]
[1]
  radiochemical purity 24 h after labeling (stability): greater than 95%
LNCaP tumors
  capture in the tumors: 8.7±1.3 % ID/g
  route of elimination: mainly with elimination by the renal route
[2]
  radiochemical stability in human serum: > 90%
[3]; patient with prostate cancer
  ability to detect in vivo overexpressed PSMA (SPECT image, FIG. 5): confirming the ability of the radiopharmaceutical to detect in vivo PSMA overexpressed in prostate cancer cells
[3]
  detection of tumors and metastases (PET and SPECT image, FIG. 6): detect tumors and metastases of prostate cancer with high sensitivity
[4]
  biokinetics (clearance and organ capture): rapid clearance from the blood with greater capture and renal excretion, lower hepatic capture and high capture in the parathyroid, salivary and lacrimal glands
  mean effective dose: 4±2 mSv

## O=C([O-])CN1CCN(CC(=O)[O-])CCN(CC(=O)NC[C@H]2CC[C@H](C(=O)N[C@@H](Cc3ccc4ccccc4c3)C(=O)NCCCC[C@H](NC(=O)N[C@@H](CCC(=O)O)C(=O)O)C(=O)O)CC2)CCN(CC(=O)[O-])CC1.[68Ga+3] [68Ga-PSMA-617, reference compound]
[3]
  detection of tumors and metastases (PET and SPECT image, FIG. 6): detect tumors and metastases of prostate cancer with high sensitivity

## NNc1ccc(C(=O)N[C@@H](Cc2ccc3ccccc3c2)C(=O)NCCCC[C@H](NC(=O)N[C@@H](CCC(=O)O)C(=O)O)C(=O)O)cn1 [HYNIC-iPSMA, Glu-NH—CO—NH-Lys(β-naphthyl alanine)-HYNIC]
[5]
  IC50: 2.9 ± 0.7 nM
balb-C laboratory mice
  toxicity or adverse effects: did not display toxicity or adverse effects
